# Measured values from US4959375A, “Piperidine derivatives useful as 5-HT3 antagonists” (John Wyeth & Brothers Limited, priority 1988, dated 1990).
# Molecular target: T1, 5-HT3 receptors (Oryctolagus cuniculus, UniProt A0A5F9C9J3)
# T1 construct: 5-HT3 receptors present on sympathetic nerve terminals in the heart; from tissue; host or cells: isolated right atrium of the rabbit heart
# T1 sequence (A0A5F9C9J3 1-494): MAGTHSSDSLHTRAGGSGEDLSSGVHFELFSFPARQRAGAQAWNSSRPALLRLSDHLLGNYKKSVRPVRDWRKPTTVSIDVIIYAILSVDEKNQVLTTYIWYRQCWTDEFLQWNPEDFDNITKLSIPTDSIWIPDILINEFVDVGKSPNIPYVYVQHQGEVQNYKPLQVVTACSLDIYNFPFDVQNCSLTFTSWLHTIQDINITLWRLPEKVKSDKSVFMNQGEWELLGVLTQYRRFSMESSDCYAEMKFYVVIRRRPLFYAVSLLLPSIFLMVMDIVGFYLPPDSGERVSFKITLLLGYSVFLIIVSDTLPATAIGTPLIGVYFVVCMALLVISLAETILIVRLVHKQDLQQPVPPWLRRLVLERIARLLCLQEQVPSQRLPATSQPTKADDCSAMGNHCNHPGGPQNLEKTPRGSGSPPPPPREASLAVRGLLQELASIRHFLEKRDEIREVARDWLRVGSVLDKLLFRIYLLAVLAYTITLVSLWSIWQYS
# Test: 5-HT3 antagonistic activity in the isolated right atrium of the rabbit heart
# Conditions: chronotropic response to 10^-5 M 5-HT, read-out: -log IC50 (IC50 is the concentration of antagonist which reduces the chronotropic response to 10^-5 M 5-HT by 50%) (converted)
# Description: The compounds of the invention are tested for 5-HT3 antagonistic activity in the isolated right atrium of the rabbit heart based upon the method of Fozard J. R., Naunyn Schmiedeberg's Arch. Pharmacol., 1984, 326, 36-44. This procedure relies upon the ability of 5-HT to stimulate 5-HT3 receptors present on sympathetic nerve terminals in the heart, causing release of noradrenaline which evokes an increase in the spontaneous rate of beating. The antagonist potency is expressed as -log IC50 (where IC50 is the concentration of antagonist which reduces the chronotropic response to 10^--5 M 5-HT by 50%).
row,SMILES,IC50
1,"CN(C)C1CCCN(C(=O)c2c[nH]c3ccccc23)C1 (centres unmarked) [Example 1, 3-Dimethylamino-1-[[(1H)-indol 3 yl]carbonyl]piperidine]",20 nM
2,"CN(C)C1CCCN(C(=O)c2n[nH]c3ccccc23)C1 (centres unmarked) [Example 4, 3-Dimethylamino-1-[[(1H)-indazol 3 yl]carbonyl]piperidine]",7.94 nM
